From ChEMBL document CHEMBL1201862, “PubChem BioAssay data set” (2004)
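A five-concentration, 48-hour dose response in 96-well plates underlies each endpoint, interpolated linearly between surrounding concentrations. GI50 marks 50% less growth.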 Activity calls are given as the source filed them. No stated cut-off is given here; in the data, active = GI50 up to about 1.1 µM and inactive = higher.

Legend:
Assay in all cases: growth of human tumour cells (NCI), 48 h
SF-295 = test system: SF-295
M14 = test system: M14
KM12 = test system: KM12
786-0 = test system: 786-0
A498 = test system: A498
UACC-257 = test system: UACC-257
SNB-19 = test system: SNB-19
LOX IMVI = test system: LOX IMVI
K562 = test system: K562
SK-OV-3 = test system: SK-OV-3
LXFL 529 = test system: LXFL 529
HOP-62 = test system: HOP-62
SN12C = test system: SN12C
CAKI-1 = test system: CAKI-1
HCT-116 = test system: HCT-116
OVCAR-4 = test system: OVCAR-4
BT-549 = test system: BT-549
SR = test system: SR
Hs-578T = test system: Hs-578T

| SMILES | GI50 (SF-295) | GI50 (M14) | GI50 (KM12) | GI50 (786-0) | GI50 (A498) | GI50 (UACC-257) | GI50 (SNB-19) | GI50 (LOX IMVI) | GI50 (K562) | GI50 (SK-OV-3) | GI50 (LXFL 529) | GI50 (HOP-62) | GI50 (SN12C) | GI50 (CAKI-1) | GI50 (HCT-116) | GI50 (OVCAR-4) | GI50 (BT-549) | GI50 (SR) | GI50 (Hs-578T) |
| --- | --- | --- | --- | --- | --- | --- | --- | --- | --- | --- | --- | --- | --- | --- | --- | --- | --- | --- | --- |
| COc1ccc(C(=O)Nc2ccccc2)cc1[N+](=O)[O-] | > 100 µM (inactive) | > 100 µM (inactive) | 89.7 µM (inactive) | > 100 µM (inactive) | > 100 µM (inactive) | > 100 µM (inactive) | > 100 µM (inactive) | > 100 µM (inactive) | > 100 µM (inactive) | > 100 µM (inactive) | > 100 µM (inactive) | > 100 µM (inactive) | > 100 µM (inactive) | > 100 µM (inactive) | – | – | – | – | – |
| Clc1ccc(C2=Nc3ccccc3SC(c3ccc(Cl)c(Cl)c3)C2)c(Cl)c1 (stereo not drawn) | 12.4 µM (inactive) | 16 µM (inactive) | 7.08 µM (inactive) | 14.5 µM (inactive) | 20.6 µM (inactive) | 19.5 µM (inactive) | 20.7 µM (inactive) | 8.15 µM (inactive) | 6 µM (inactive) | 28.1 µM (inactive) | 15.3 µM (inactive) | 12.6 µM (inactive) | 17.2 µM (inactive) | 13.5 µM (inactive) | 11.4 µM (inactive) | 17.1 µM (inactive) | – | – | – |
| CS(=O)(=O)OC1CN2CCC1CC2 (stereo not drawn) | > 100 µM (inactive) | > 100 µM (inactive) | > 100 µM (inactive) | > 100 µM (inactive) | > 100 µM (inactive) | > 100 µM (inactive) | > 100 µM (inactive) | > 100 µM (inactive) | > 100 µM (inactive) | > 100 µM (inactive) | – | > 100 µM (inactive) | > 100 µM (inactive) | > 100 µM (inactive) | > 100 µM (inactive) | > 100 µM (inactive) | > 100 µM (inactive) | > 100 µM (inactive) | > 100 µM (inactive) |
| COc1ncnc2c1cnn2Cc1cn(CCCCO)nn1 | > 100 µM (inactive) | > 100 µM (inactive) | > 100 µM (inactive) | > 100 µM (inactive) | > 100 µM (inactive) | > 100 µM (inactive) | > 100 µM (inactive) | > 100 µM (inactive) | > 100 µM (inactive) | > 100 µM (inactive) | – | > 100 µM (inactive) | > 100 µM (inactive) | > 100 µM (inactive) | > 100 µM (inactive) | > 100 µM (inactive) | > 100 µM (inactive) | > 100 µM (inactive) | > 100 µM (inactive) |
| O=C1CSC(=S)N1c1ccco1 | > 100 µM (inactive) | 44.2 µM (inactive) | 21.9 µM (inactive) | 25.4 µM (inactive) | > 100 µM (inactive) | > 100 µM (inactive) | > 100 µM (inactive) | 79.6 µM (inactive) | > 100 µM (inactive) | > 100 µM (inactive) | – | > 100 µM (inactive) | 57.1 µM (inactive) | > 100 µM (inactive) | 60.4 µM (inactive) | > 100 µM (inactive) | 16.3 µM (inactive) | > 100 µM (inactive) | > 100 µM (inactive) |
| COc1cccc(/N=N/C(=N\NC(=O)c2ccc(C)cc2)c2ccc(N(CCC#N)CCC#N)cc2C)c1 | 85.7 µM (inactive) | > 100 µM (inactive) | 73.5 µM (inactive) | > 100 µM (inactive) | 44.3 µM (inactive) | 42.8 µM (inactive) | > 100 µM (inactive) | > 100 µM (inactive) | > 100 µM (inactive) | 48.2 µM (inactive) | – | 72.8 µM (inactive) | > 100 µM (inactive) | > 100 µM (inactive) | 68.1 µM (inactive) | 25.1 µM (inactive) | 71 µM (inactive) | 61.1 µM (inactive) | 54.1 µM (inactive) |
| Cc1cc(C)nc(NS(=O)(=O)c2ccc(NC(=O)c3cccn4c(=O)c5ccccc5nc34)cc2)n1 | > 100 µM (inactive) | 50.7 µM (inactive) | 41.1 µM (inactive) | > 100 µM (inactive) | – | – | 62.5 µM (inactive) | 29.1 µM (inactive) | 32.1 µM (inactive) | – | 29.3 µM (inactive) | > 100 µM (inactive) | 53.2 µM (inactive) | – | 53.5 µM (inactive) | 27.9 µM (inactive) | – | 24 µM (inactive) | – |
| Cc1ccc(C2=CC(=O)/C(=C\C(=O)c3ccc(Br)cc3)O2)c(C)c1 | 26 µM (inactive) | 11.6 µM (inactive) | 20.4 µM (inactive) | 8.34 µM (inactive) | 19.9 µM (inactive) | 16.9 µM (inactive) | 18.7 µM (inactive) | 3.78 µM (inactive) | 3.4 µM (inactive) | 7.74 µM (inactive) | – | 42.4 µM (inactive) | 13.2 µM (inactive) | 3.04 µM (inactive) | 7.64 µM (inactive) | 9.42 µM (inactive) | 7.03 µM (inactive) | 2.36 µM (inactive) | 18.1 µM (inactive) |
| CCc1ccc2c(c1)/C(=C1/Nc3ccccc3/C1=N/O)C(=O)N2 | 6.25 µM (inactive) | 12.6 µM (inactive) | 0.117 µM (active) | 6.61 µM (inactive) | 4.03 µM (inactive) | 15.2 µM (inactive) | 14.7 µM (inactive) | 6.76 µM (inactive) | 4.5 µM (inactive) | 2.44 µM (inactive) | – | 10.6 µM (inactive) | 5.61 µM (inactive) | 2.24 µM (inactive) | 3.27 µM (inactive) | 6.67 µM (inactive) | 8 µM (inactive) | 3.29 µM (inactive) | 4.57 µM (inactive) |
| Cc1ccc2nc(Cl)c(/C=N/N3C(=O)/C(=C/Cc4ccco4)N=C3c3ccccc3)cc2c1 | > 82.8 µM (inactive) | 27.7 µM (inactive) | 3.33 µM (inactive) | 20.4 µM (inactive) | 5.06 µM (inactive) | 32.7 µM (inactive) | 35.8 µM (inactive) | 27.4 µM (inactive) | 38.1 µM (inactive) | > 100 µM (inactive) | – | 62.2 µM (inactive) | 26.5 µM (inactive) | 5.04 µM (inactive) | 18.5 µM (inactive) | 51.6 µM (inactive) | 29.7 µM (inactive) | > 69.3 µM (inactive) | 34.2 µM (inactive) |
| CC1OC(n2cc(F)c(=O)[nH]c2=O)C(O[Si](C)(C)C(C)(C)C)C1O[Si](C)(C)C(C)(C)C (stereo not drawn) | 11.5 µM (inactive) | 20.2 µM (inactive) | 11.9 µM (inactive) | 14.6 µM (inactive) | 14.2 µM (inactive) | 17.7 µM (inactive) | 14.7 µM (inactive) | 16.2 µM (inactive) | 15.4 µM (inactive) | 14.7 µM (inactive) | – | 21.5 µM (inactive) | 12.4 µM (inactive) | 13.6 µM (inactive) | 13.9 µM (inactive) | 6.41 µM (inactive) | 13.4 µM (inactive) | 6.03 µM (inactive) | 14.3 µM (inactive) |
| CN(CCNC(=O)c1n[nH]c2c1Cc1ccccc1-2)CCNC(=O)c1n[nH]c2c1Cc1ccccc1-2 | 16.6 µM (inactive) | 18.7 µM (inactive) | 17.3 µM (inactive) | 16 µM (inactive) | 18.6 µM (inactive) | 18.8 µM (inactive) | 16.8 µM (inactive) | 18.9 µM (inactive) | 18 µM (inactive) | 16.5 µM (inactive) | – | 14.8 µM (inactive) | 16.7 µM (inactive) | 16.7 µM (inactive) | 16.2 µM (inactive) | 15.9 µM (inactive) | 16.8 µM (inactive) | 19.5 µM (inactive) | 25.3 µM (inactive) |
| C[C@@]12C[C@@H](c3ccccc3O1)N1CCSC1=N2 | > 100 µM (inactive) | > 100 µM (inactive) | > 100 µM (inactive) | > 100 µM (inactive) | > 100 µM (inactive) | > 100 µM (inactive) | > 100 µM (inactive) | > 100 µM (inactive) | > 100 µM (inactive) | > 100 µM (inactive) | – | > 100 µM (inactive) | > 100 µM (inactive) | > 100 µM (inactive) | > 100 µM (inactive) | > 100 µM (inactive) | > 100 µM (inactive) | > 100 µM (inactive) | > 100 µM (inactive) |
| O=C(CC1(O)C(=O)Nc2ccccc21)c1ccncc1 (stereo not drawn) | > 100 µM (inactive) | > 100 µM (inactive) | – | > 100 µM (inactive) | > 100 µM (inactive) | – | > 100 µM (inactive) | > 100 µM (inactive) | > 100 µM (inactive) | > 100 µM (inactive) | > 100 µM (inactive) | – | > 100 µM (inactive) | > 100 µM (inactive) | > 100 µM (inactive) | > 100 µM (inactive) | – | > 100 µM (inactive) | – |
| C[N+](C)(C)CCCCCc1c2nc(c(CCCCC[N+](C)(C)C)c3ccc([nH]3)c(CCCCC[N+](C)(C)C)c3nc(c(CCCCC[N+](C)(C)C)c4ccc1[nH]4)C=C3)C=C2 | > 100 µM (inactive) | > 100 µM (inactive) | > 100 µM (inactive) | > 100 µM (inactive) | > 100 µM (inactive) | > 100 µM (inactive) | > 100 µM (inactive) | > 100 µM (inactive) | > 100 µM (inactive) | > 100 µM (inactive) | – | > 100 µM (inactive) | > 100 µM (inactive) | > 100 µM (inactive) | > 100 µM (inactive) | > 100 µM (inactive) | > 100 µM (inactive) | > 100 µM (inactive) | 56 µM (inactive) |
| CC1=NN=C(N)N/C1=C\C(Sc1ccc(Cl)cc1)c1ccc(Cl)cc1Cl (stereo not drawn) | 16.9 µM (inactive) | 13.6 µM (inactive) | 6.41 µM (inactive) | 18.5 µM (inactive) | 19.2 µM (inactive) | 16.8 µM (inactive) | 12.4 µM (inactive) | 14.3 µM (inactive) | 1.28 µM (inactive) | 18.3 µM (inactive) | – | 23.8 µM (inactive) | 24.8 µM (inactive) | 25.4 µM (inactive) | 8.02 µM (inactive) | 17.1 µM (inactive) | 20 µM (inactive) | > 100 µM (inactive) | 17.5 µM (inactive) |
